{"source": "patent US20210348164A1", "about": "“ENDOGENOUS CYTOPLASMIC ALU COMPLEMENTARY DNA IN AGE-RELATED MACULAR DEGENERATION” (University of Virginia Patent Foundation, priority 2018, published 2021)", "test_system": "Alu cDNA in ARPE-19 cells", "test": "Alu cDNA in ARPE-19 cells (Alu c-PCR, in situ hybridization)", "type": "cell-based, human", "conditions": "heat shock or DICER1 AS, in situ hybridization", "description": "Cell culture and transfection. Primary mouse and human RPE cells were isolated as previously described (Kerur et al., 2018). All cells were maintained at 37° C. in a 5% CO2 environment. Mouse RPE cells were cultured in DMEM supplemented with 20% FBS and penicillin/streptomycin antibiotics at standard concentrations; primary human RPE cells were maintained in DMEM supplemented with 10% FBS and antibiotics. The human RPE cell line ARPE19 was cultured as previously described (Kerur et al., 2018) and maintained in DMEM-F12 containing penicillin/streptomycin, Fungizone, and gentamicin. HEK293T cells were cultured in DMEM with 10% fetal bovine serum (FBS) with 100 U/ml penicillin/streptomycin and 2 mM L-glutamine. […]\nIn situ hybridization. […] Visualization of fluorescein-labelled probe was performed with the TSA™ plus fluorescence system or the TSA™ plus Cy5 system (PerkinElmer). The fluorescent or Cy5 signals were detected using a Leica SP-5 or MR Nikon confocal microscope system. […]"}
{"substance": "L1 siRNA: siRNA targeting L1; cholesterol-conjugated mouse L1 siRNA (SEQ ID NOs: 48 and 49) in vivo, human L1 siRNA sequences in human cells (chain 1 ACUAUUACUCUGAUACCTT; chain 2 UGUACUAAGGUCAAAUCTT; cholesterol conjugated, position not given here)", "values": [{"measurement": "Alu cDNA induction", "value": "reduced Alu cDNA formation"}]}
